Source: ChEMBL document CHEMBL3860046, “Increasing metabolic stability via the deuterium kinetic isotope effect: An example from a proline-amide-urea aminothiazole series of phosphatidylinositol-3 kinase alpha inhibitors” (Bioorg Med Chem Lett, 2016)
Active and inactive are the calls of the source. No cut-off for these calls is given here.

Tests used:
[1] = Drug level in human hepatocytes treated with 1 uM (2S)-N1-[4-methyl-5-[2-[2,2,2-trideuterio-1,1-bis(trideuteriomethyl)ethyl]pyrimidin-4-yl]thiazol-2-yl]pyrrolidine-1,2-dicarboxamide measured after 40 to 60 mins by capillary-HPLC/MS analysis; format: ADME, cell-based, Hepatocyte
[2] = Drug level in rat hepatocytes treated with 1 uM (2S)-N1-[4-methyl-5-[2-[2,2,2-trideuterio-1,1-bis(trideuteriomethyl)ethyl]pyrimidin-4-yl]thiazol-2-yl]pyrrolidine-1,2-dicarboxamide measured after 40 to 60 mins by capillary-HPLC/MS analysis; format: ADME, cell-based, Hepatocyte
[3] = Drug level in human liver microsomes treated with (S)-N1-(5-(2-tert-butylpyrimidin-4-yl)-4-methylthiazol-2-yl)pyrrolidine-1,2-dicarboxamide at 5 uM measured after 1 hr in presence of alamethicin,uridine 5'-diphospho-glucuronic acid,glutathione,NADPH by capillary-HPLC/MS analysis; format: ADME
[4] = (§1) Drug level in rat liver microsomes treated with (S)-N1-(5-(2-tert-butylpyrimidin-4-yl)-4-methylthiazol-2-yl)pyrrolidine-1,2-dicarboxamide at 5 uM measured after 1 hr in presence of alamethicin,uridine 5'-diphospho-glucuronic acid,glutathione,NADPH by capillary-HPLC/MS analysis; format: ADME
[5] = as §1, with “measured immediately” for “measured”, “compound addition” for “1 hr”; format: ADME
[6] = Terminal half life in Sprague-Dawley rat at 3 mg/kg, po administered in cassette mode; format: ADME, organism-based; settings: in vivo, read-out: beta t1/2 (converted)
[7] = Clearance in Sprague-Dawley rat at 1 mg/kg, iv administered in cassette mode measured up to 48 hrs; format: ADME, organism-based; settings: in vivo
[8] = Stability in Sprague-Dawley rat blood assessed as compound remaining at 1 mg/kg, iv administered in cassette mode measured after 1 hr by capillary-HPLC/MS analysis; format: ADME, organism-based; settings: whole blood, read-out: Stability
[9] = Tmax in Sprague-Dawley rat at 1 mg/kg, iv or 3 mg/kg, po administered in cassette mode; format: ADME, organism-based; settings: in vivo
[10] = Dose normalized Cmax in Sprague-Dawley rat at 1 mg/kg, iv or 3 mg/kg, po administered in cassette mode; format: ADME, organism-based; settings: in vivo
[11] = Stability in human hepatocytes assessed as compound remaining at 1 uM measured after 40 to 60 mins by capillary-HPLC/MS analysis; format: ADME, cell-based, Hepatocyte; settings: read-out: Stability
[12] = Antitumor activity in Rat1 cells expressing myr-p110alpha xenografted in Harlan nude mouse assessed as tumor regression at 50 mg/kg, po qd administered for 8 days measured post last dose; format: functional, Rattus norvegicus
[13] = Dose normalized AUC in Sprague-Dawley rat at 1 mg/kg, iv administered in cassette mode measured up to 48 hrs; format: ADME, organism-based; settings: in vivo
[14] = Stability in Sprague-Dawley rat blood assessed as compound remaining at 1 mg/kg, iv administered in cassette mode measured after 0.5 hrs by capillary-HPLC/MS analysis; format: ADME, organism-based; settings: whole blood, read-out: Stability
[15] = Stability in Sprague-Dawley rat blood assessed as compound remaining at 3 mg/kg, po administered in cassette mode measured after 1 hr by capillary-HPLC/MS analysis; format: ADME, organism-based; settings: whole blood, read-out: Stability
[16] = Intrinsic clearance in rat liver microsomes at 1 uM after 5 to 30 mins in presence of NADPH by LC-MS/MS analysis; format: ADME; settings: read-out: CLH
[17] = Antitumor activity in Rat1 cells expressing myr-p110alpha xenografted in Harlan nude mouse assessed as tumor regression at 25 mg/kg, po qd administered for 8 days measured post last dose; format: functional, Rattus norvegicus
[18] = Intrinsic clearance in human liver microsomes at 1 uM after 5 to 30 mins in presence of NADPH by LC-MS/MS analysis; format: ADME; settings: read-out: CLH
[19] = Volume of distribution at steady state in Sprague-Dawley rat at 1 mg/kg, iv or 3 mg/kg, po administered in cassette mode measured up to 48 hrs; format: ADME, organism-based; settings: in vivo, read-out: Vdss
[20] = Oral bioavailability in Sprague-Dawley rat at 3 mg/kg administered in cassette mode measured up to 48 hrs; format: ADME, organism-based; settings: in vivo
[21] = Stability in rat hepatocytes assessed as compound remaining at 1 uM measured after 40 to 60 mins by capillary-HPLC/MS analysis; format: ADME, cell-based, Hepatocyte; settings: read-out: Stability
[22] = Stability in Sprague-Dawley rat blood assessed as compound remaining at 3 mg/kg, po administered in cassette mode measured after 0.5 hrs by capillary-HPLC/MS analysis; format: ADME, organism-based; settings: whole blood, read-out: Stability
[23] = Intrinsic clearance in mouse liver microsomes at 1 uM after 5 to 30 mins in presence of NADPH by LC-MS/MS analysis; format: ADME; settings: read-out: CLH
[24] = Dose normalized AUC in Sprague-Dawley rat at 3 mg/kg, po administered in cassette mode measured up to 48 hrs; format: ADME, organism-based; settings: in vivo
[25] = Stability in rat liver microsomes assessed as compound remaining at 5 uM measured immediately after compound addition in presence of alamethicin,uridine 5'-diphospho-glucuronic acid,glutathione,NADPH by capillary-HPLC/MS analysis (reference value: 96.3 %); format: ADME; settings: read-out: Stability
[26] = AUC (0 to 24 hrs) in Harlan nude mouse plasma xenografted with Rat1 cells expressing myr-p110alpha at 150 mg/kg, po qd administered for 8 days measured post last dose; format: ADME, organism-based; set-up: time < 24 hr, dose 150 mg/kg, route oral
[27] = Antitumor activity in Rat1 cells expressing myr-p110alpha xenografted in Harlan nude mouse assessed as tumor regression at 100 mg/kg, po qd administered for 8 days measured post last dose; format: functional, Rattus norvegicus
[28] = AUC (0 to 24 hrs) in Harlan nude mouse plasma xenografted with Rat1 cells expressing myr-p110alpha at 100 mg/kg, po qd administered for 8 days measured post last dose; format: ADME, organism-based; set-up: dose 100 mg/kg, time < 24 hr, route oral
[29] = Stability in rat liver microsomes assessed as compound remaining at 5 uM measured after 1 hr in presence of alamethicin,uridine 5'-diphospho-glucuronic acid,glutathione,NADPH by capillary-HPLC/MS analysis (reference value: 96.3 %); format: ADME; settings: read-out: Stability
[30] = Stability in human liver microsomes assessed as compound remaining at 5 uM measured after 1 hr in presence of alamethicin,uridine 5'-diphospho-glucuronic acid,glutathione,NADPH by capillary-HPLC/MS analysis (reference value: 96.3 %); format: ADME; settings: read-out: Stability
[31] = AUC (0 to 24 hrs) in Harlan nude mouse plasma xenografted with Rat1 cells expressing myr-p110alpha at 50 mg/kg, po qd administered for 8 days measured post last dose; format: ADME, organism-based; set-up: time < 24 hr, dose 50 mg/kg, route oral
[32] = Antitumor activity in Rat1 cells expressing myr-p110alpha xenografted in Harlan nude mouse assessed as tumor regression at 150 mg/kg, po qd administered for 8 days measured post last dose; format: functional, Rattus norvegicus
[33] = organism: Mus musculus; settings: Harlan, Rat1, 50 mg/kg
[34] = organism: Mus musculus; settings: Harlan, Rat1, 50 mg/kg; remark: listed apart in the source

SMILES | Drug metabolism [1] | Drug metabolism [2] | Drug metabolism [3] | Drug metabolism [4] | half-life [6] | remaining at 1 h [8] | Tmax [9] | Cmax/dose [10] | AUC/dose [13] | remaining at 0.5 h [14] | remaining at 1 h [15] | microsomal CLint at 1 µM [16] | microsomal CLint at 1 µM [18] | Vd [19] | bioavailability [20] | remaining at 0.5 h [22] | microsomal CLint at 1 µM [23] | AUC/dose [24] | other results
[2H]C([2H])([2H])C(c1nccc(-c2sc(NC(=O)N3CCC[C@H]3C(=O)O)nc2C)n1)(C([2H])([2H])[2H])C([2H])([2H])[2H] | Metabolite_Detected | Metabolite_Detected |  |  |  |  |  |  |  |  |  |  |  |  |  |  |  |  | 
[2H]C([2H])([2H])C(c1nccc(-c2sc(NC(=O)N3CCC[C@H]3C(N)=O)nc2C)n1)(C([2H])([2H])[2H])C([2H])([2H])[2H] |  |  |  |  | 90 min | 95% | 18 min | 270 nM | 2750 nM·kg·h/mg | 95% | 91% | 22 µL/min/mg | 19 µL/min/mg | 1.4 L/kg | 54% | 91% | 19 µL/min/mg | 1490 nM·kg·h/mg | clearance [7]: 16 mL/min/kg; remaining at 1 µM [11]: 96.2%; Activity [12]: 63%; Activity [17]: 24%; remaining at 1 µM [21]: 94.5%
Cc1nc(NC(=O)N2CCC[C@H]2C(N)=O)sc1-c1ccnc(C(C)(C)C)n1 |  |  |  |  | 72 min | 86% | 18 min | 180 nM | 2010 nM·kg·h/mg | 90% | 73% | 55 µL/min/mg | 32 µL/min/mg | 1.2 L/kg | 26% | 74% | 35 µL/min/mg | 527 nM·kg·h/mg | remaining at 0 min, 5 µM [25]: 98.9%; AUC at 24 h [26]: 383 µM·h; Activity [27]: 10%; AUC at 24 h [28]: 134 µM·h; remaining at 1 h, 5 µM [29]: 87.2%; remaining at 1 h, 5 µM [30]: 90.8%; AUC at 24 h [31]: 65 µM·h; Activity [32]: 51%; inhibition [33]: Active; inhibition [34]: Active
Cc1nc(NC(=O)N2CCC[C@H]2C(N)=O)sc1-c1ccnc(C(C)(C)CO)n1 |  |  | Metabolite_Detected | Metabolite_Detected |  |  |  |  |  |  |  |  |  |  |  |  |  |  | 

Now from value to compound, other results behind:

Drug metabolism [1] | Drug metabolism [2] | Drug metabolism [3] | Drug metabolism [4] | half-life [6] | remaining at 1 h [8] | Tmax [9] | Cmax/dose [10] | AUC/dose [13] | remaining at 0.5 h [14] | remaining at 1 h [15] | microsomal CLint at 1 µM [16] | microsomal CLint at 1 µM [18] | Vd [19] | bioavailability [20] | remaining at 0.5 h [22] | microsomal CLint at 1 µM [23] | AUC/dose [24] | SMILES | other results
 |  | Metabolite_Detected | Metabolite_Detected |  |  |  |  |  |  |  |  |  |  |  |  |  |  | Cc1nc(NC(=O)N2CCC[C@H]2C(=O)O)sc1-c1ccnc(C(C)(C)C)n1 | Drug metabolism [5]: Metabolite_Detected
Metabolite_Detected | Metabolite_Detected |  |  |  |  |  |  |  |  |  |  |  |  |  |  |  |  | [2H]C([2H])([2H])C(c1nccc(-c2sc(NC(=O)N3CCC[C@H]3C(N)=O)nc2C)n1)(C([2H])([2H])[2H])C([2H])([2H])O | 
